{"source": "ChEMBL document CHEMBL5506068", "about": "(J Med Chem, 2024)", "key": {"[1]": {"target": "Kappa-type opioid receptor (Mus musculus, UniProt P33534)", "sequence (P33534 whole entry)": "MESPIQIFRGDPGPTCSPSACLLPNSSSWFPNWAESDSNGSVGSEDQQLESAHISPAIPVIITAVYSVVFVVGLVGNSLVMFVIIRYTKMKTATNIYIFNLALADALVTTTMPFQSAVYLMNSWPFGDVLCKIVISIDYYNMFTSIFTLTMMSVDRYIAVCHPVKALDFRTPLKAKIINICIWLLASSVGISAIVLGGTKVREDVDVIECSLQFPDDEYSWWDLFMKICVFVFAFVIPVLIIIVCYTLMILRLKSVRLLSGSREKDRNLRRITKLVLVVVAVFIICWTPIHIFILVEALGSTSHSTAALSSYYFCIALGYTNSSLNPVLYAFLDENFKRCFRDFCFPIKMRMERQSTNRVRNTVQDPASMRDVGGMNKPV", "assay": "Displacement of [3H]diprenorphine from mouse KOR expressed in CHO cells assessed as dissociation constant incubated for […] by radioligand binding assay", "assay_type": "cell-based"}, "Mu-type opioid receptor": {"target": "Mu-type opioid receptor (Mus musculus, UniProt P42866)", "sequence (P42866 whole entry)": "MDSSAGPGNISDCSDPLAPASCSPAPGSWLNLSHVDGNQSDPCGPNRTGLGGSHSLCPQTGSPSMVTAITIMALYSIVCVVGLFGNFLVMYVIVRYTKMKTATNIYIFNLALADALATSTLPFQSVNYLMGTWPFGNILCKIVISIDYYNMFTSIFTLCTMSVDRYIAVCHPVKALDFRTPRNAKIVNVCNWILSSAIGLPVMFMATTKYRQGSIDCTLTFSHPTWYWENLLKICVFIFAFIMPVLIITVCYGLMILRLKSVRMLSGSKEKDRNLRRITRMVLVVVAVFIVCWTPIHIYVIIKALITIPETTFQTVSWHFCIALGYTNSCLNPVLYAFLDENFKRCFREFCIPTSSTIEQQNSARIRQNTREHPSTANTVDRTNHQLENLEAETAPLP", "assay": "Displacement of [3H]Naloxone from mouse MOR expressed in CHO cells assessed as dissociation constant incubated for […] by radioligand binding assay", "assay_type": "cell-based"}, "[2]": {"target": "T1, Delta-type opioid receptor (Homo sapiens, UniProt P41143)", "T1 sequence (P41143 whole entry)": "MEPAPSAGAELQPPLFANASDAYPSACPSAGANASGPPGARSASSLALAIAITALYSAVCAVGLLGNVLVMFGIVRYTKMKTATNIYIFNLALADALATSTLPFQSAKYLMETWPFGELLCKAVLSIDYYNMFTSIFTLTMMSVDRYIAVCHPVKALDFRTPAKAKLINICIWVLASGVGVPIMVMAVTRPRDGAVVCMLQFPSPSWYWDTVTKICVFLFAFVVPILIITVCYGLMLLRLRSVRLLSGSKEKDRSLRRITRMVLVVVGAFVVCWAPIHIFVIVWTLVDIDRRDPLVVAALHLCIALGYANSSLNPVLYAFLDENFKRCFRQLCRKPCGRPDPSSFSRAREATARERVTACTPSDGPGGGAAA", "assay": "Displacement of [3H]diprenorphine from human DOR expressed in CHO cells assessed as dissociation constant incubated for […] by radioligand binding assay", "assay_type": "cell-based"}, "Mus musculus [3]": {"system": "Mus musculus", "assay": "Antinociception activity in male Swiss Webster mouse model assessed as increase in maximum possible effect at 10 mg/kg, sc measured after 20 mins by warm-water tail immersion assay relative to control", "assay_type": "functional"}, "[4]": {"target": "T1, Delta-type opioid receptor", "assay": "Agonist activity at human DOR expressed in CHO cells increase in [35S]GTPgammaS binding measured after […] by scintillation counter analysis relative to SNC80", "assay_type": "functional, cell-based", "details": "filed as agonist"}, "Mus musculus [5]": {"system": "Mus musculus", "assay": "Antinociception activity in male Swiss Webster mouse model assessed as increase in maximum possible effect at 0.1 mg/kg, sc measured after 30 to 360 mins post injection by warm-water tail immersion assay", "assay_type": "functional, organism-based", "details": "time 30-360 min"}, "Mus musculus [6]": {"system": "Mus musculus", "assay": "Antinociception activity in male Swiss Webster mouse model assessed as increase in maximum possible effect at 0.05 mg/kg, sc measured until 3 hrs post injection by warm-water tail immersion assay", "assay_type": "functional, organism-based"}, "Mus musculus [7]": {"system": "Mus musculus", "assay": "Antinociception activity in male Swiss Webster mouse model assessed as increase in maximum possible effect at 0.05 mg/kg, sc measured after 6 hrs post injection by warm-water tail immersion assay", "assay_type": "functional, organism-based"}, "[8]": {"assay": "Toxicity in Swiss Webster mouse assessed as reduction in sedative effect at 0.05 to 0.5 mg/kg,sc", "assay_type": "organism-based", "details": "in vivo, dose 0.05-0.5 mg/kg"}, "[9]": {"assay": "Toxicity in Swiss Webster mouse assessed as effect on locomotion at 0.05 to 0.5 mg/kg,sc measured after 30 mins", "assay_type": "organism-based", "details": "in vivo, 0.5 h, dose 0.05-0.5 mg/kg"}, "[10]": {"assay": "Toxicity in Swiss Webster mouse assessed as effect on average speed at 0.05 to 0.5 mg/kg,sc measured after 30 mins", "assay_type": "organism-based", "details": "in vivo, 0.5 h, dose 0.05-0.5 mg/kg"}, "[11]": {"assay": "Abuse liability in male Sprague-Dawley rat assessed as reduction in reinforcement at 0.32 to 10 microg/kg administered per infusion", "assay_type": "toxicity", "details": "in vivo, iv, dose 0.32-10 µg/kg"}, "[12]": {"assay": "Drug uptake in Swiss Webster mouse plasma at 0.1 mg/kg, sc measured after 5 mins by LC-MS/MS analysis", "assay_type": "ADME, organism-based", "details": "in vivo"}, "Mus musculus [13]": {"system": "Mus musculus", "assay": "Antinociception activity in male Swiss Webster mouse model assessed as effect on tail withdrawal latency at 0.05 to 0.1 mg/kg, sc pre incubated with naltrindole for 30 mins followed by compound addition and measured after 20 mins by warm water tail immersion assay", "assay_type": "functional, organism-based", "details": "dose 0.05-0.1 mg/kg"}, "Mus musculus [14]": {"system": "Mus musculus", "assay": "Antinociception activity in male Swiss Webster mouse model assessed as effect on tail withdrawal latency at 0.05 to 0.1 mg/kg, sc pre incubated with nor-BNI for 24 hrs followed by compound addition and measured after 20 mins by warm water tail immersion assay", "assay_type": "functional, organism-based", "details": "dose 0.05-0.1 mg/kg"}, "Mus musculus [15]": {"system": "Mus musculus", "assay": "Antinociception activity in male Swiss Webster mouse model assessed as effect on tail withdrawal latency at 0.05 to 0.1 mg/kg, sc pre incubated with nor-BNI/naltrindole for 24 hrs followed by compound addition and measured after 20 mins by warm water tail immersion assay", "assay_type": "functional, organism-based", "details": "dose 0.05-0.1 mg/kg"}, "in vivo [16]": {"assay": "in vivo", "details": "Swiss Webster, mouse, blood and plasma, sc, 0.1 mg/kg", "description": "Ratio of drug level in Swiss Webster mouse blood to plasma at 0.1 mg/kg, sc measured after 10 mins by LC-MS/MS analysis"}, "in vivo [17]": {"assay": "in vivo", "details": "Swiss Webster, mouse, blood and plasma, sc, 0.1 mg/kg", "remark": "listed apart in the source", "description": "Ratio of drug level in Swiss Webster mouse blood to plasma at 0.1 mg/kg, sc measured after 30 mins by LC-MS/MS analysis"}, "in vivo [18]": {"assay": "in vivo", "details": "Swiss Webster, mouse, blood and plasma, sc, 0.1 mg/kg", "remark": "listed apart in the source", "description": "Ratio of drug level in Swiss Webster mouse blood to plasma at 0.1 mg/kg, sc measured after 60 mins by LC-MS/MS analysis"}}, "note": "Active and inactive are the calls of the source. The rule behind the calls is not given here.", "data": [{"molecule": "CN(C(=O)/C=C/c1ccco1)[C@@H]1CC[C@@]2(O)[C@H]3Cc4ccc(O)c5c4[C@@]2(CCN3CC2CC2)[C@H]1O5.Cl", "values": [{"measurement": "Kd", "setting": "[1]", "result": 0.22, "unit": "nM"}, {"measurement": "Kd", "setting": "Mu-type opioid receptor", "result": 0.78, "unit": "nM"}, {"measurement": "Kd", "setting": "[2]", "result": 7.93, "unit": "nM"}, {"measurement": "MPE", "setting": "Mus musculus [3]", "result": 100, "unit": "%"}, {"measurement": "Emax", "setting": "[4]", "result": 96.1, "unit": "%"}, {"measurement": "Activity", "setting": "Mus musculus [5]", "result": "Active"}, {"measurement": "Activity", "setting": "Mus musculus [6]", "result": "Active"}, {"measurement": "Activity", "setting": "Mus musculus [7]", "result": "inactive"}, {"measurement": "Activity", "setting": "[8]", "result": "Toxic"}, {"measurement": "Activity", "setting": "[9]", "result": "Toxic"}, {"measurement": "Activity", "setting": "[10]", "result": "Toxic"}, {"measurement": "Activity", "setting": "[11]", "result": "Non-Toxic"}, {"measurement": "Drug uptake", "setting": "[12]", "result": "Active"}, {"measurement": "Activity", "setting": "Mus musculus [13]", "result": "inactive"}, {"measurement": "Activity", "setting": "Mus musculus [14]", "result": "inactive"}, {"measurement": "Activity", "setting": "Mus musculus [15]", "result": "inactive"}, {"measurement": "blood plasma ratio at 10 min", "setting": "in vivo [16]", "result": 0.762}, {"measurement": "blood plasma ratio at 0.5 h", "setting": "in vivo [17]", "result": 0.645}, {"measurement": "blood plasma ratio at 1 h", "setting": "in vivo [18]", "result": 1.45}]}]}
